Laboratory results from PMC8876525 (Viruses, 2022).
Marks after values point to notes of the source that are not given here.

Experiments:
HBV [1] = assay: Secreted HBV DNA in HepAD38 culture supernatant (RT-qPCR); type: cell-based; details: for EC50: Hepatitis B virus, read-out: EC50 (secreted HBV DNA); for Residual HBV DNA level (secreted) relative to DMSO control: 20 μM compound
[2] = CCK-8 cytotoxicity assay in HepAD38 cells; type: cell-based, Human; details: human, 6 days
HepAD38 cells = assay: CCK-8 cytotoxicity assay in HepAD38 cells; type: cell-based, Human
[3] = system: ETV-resistant mutant (rtL180M/S202G/M204V) HBV; assay: Drug susceptibility assay, HepG2 transfected with ETV-resistant mutant; type: cell-based; details: Hepatitis B virus, HepG2, 144 h, read-out: viral replication EC50
HBV capsid = HBV capsid (Hepatitis B virus genotype D subtype ayw, UniProt P03146); assay: Intracellular HBV capsid formation; type: cell-based; details: 6 days; for Effect on intracellular HBV capsid formation at single concentration: HepAD38 or HepG2-HBV1.3 cells, compounds 10 μM, ETV 25 nM, BAY 41-4109 2 μM
HBV encapsidated pgRNA = assay: Encapsidated pgRNA and total HBV RNAs (Northern blot); type: cell-based; details: HepAD38 cells, BAY 41-4109 2 μM; for Effect on HBV encapsidated pgRNA: C-18, C-39, C-19 5 μM, ETV 25 nM
HBsAg = assay: Secreted HBsAg ELISA; type: cell-based, HBV; details: 6 days, ETV 25 nM, BAY 41-4109 2 μM
wild-type HBV = assay: Drug susceptibility assay, HepG2 transfected with HBV1.1-WT; type: cell-based; details: Hepatitis B virus, 144 h; wild-type HBV in HepG2, secreted HBV DNA, 6 days; read-out: viral replication EC50
HBV [4] = assay: Secreted HBV DNA in HepG2-HBV1.3 culture supernatant (RT-qPCR); type: cell-based; details: HepG2-HBV1.3 cells
HBeAg = assay: Secreted HBeAg ELISA; type: cell-based, HBV; details: 6 days
HBV core DNA = assay: Intracellular HBV core DNA (qPCR) and replicative intermediates (Southern blot); type: cell-based; details: 6 days; for Effect on intracellular HBV core DNA: qPCR
[5] = CCK-8 cytotoxicity assay in HepG2-HBV1.3 (HepG2) cells; type: cell-based; details: human
HBc = HBc (Hepatitis B virus genotype D subtype ayw, UniProt P03146); assay: Immunofluorescence of HBV core protein in HepAD38 cells; type: cell-based; details: 3 days, C-18 and C-39 5 μM, BAY 41-4109 2 μM
HBV [6] = assay: HepG2-NTCP de novo HBV infection model (viral markers, cccDNA Taq-Man qPCR); type: cell-based; details: HepG2-NTCP cells, 5 μM
HBV 3.5 kb RNA = assay: Intracellular HBV 3.5 kb RNA (RT-qPCR); type: cell-based; details: 6 days

HBV capsid, sequence (P03146 whole entry): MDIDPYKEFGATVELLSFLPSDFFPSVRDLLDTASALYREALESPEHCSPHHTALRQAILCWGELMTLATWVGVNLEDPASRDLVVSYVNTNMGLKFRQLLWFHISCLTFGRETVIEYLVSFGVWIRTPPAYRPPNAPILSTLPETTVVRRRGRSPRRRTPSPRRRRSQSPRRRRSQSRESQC
HBc, sequence (P03146 whole entry): as above

Cc1nc(-c2csc(S(=O)(=O)N3CCCC(C(=O)Nc4ccc(F)c(Cl)c4)C3)c2)no1 (stereo not shown) [Compound C-41]
SI (CC50/EC50) (HBV [1]; HepAD38 cells): 1542 ^a | EC50 (HBV [1]; 144 h, HepAD38 cells, 6 days): 62 ± 13 nM | CC50 at 6 days [2]: 95600 ± 15700 nM

O=C(Nc1ccc(F)c(F)c1)c1cc2nccc(-c3cccs3)n2n1 [Compound C-2]
Residual HBV DNA level (secreted) relative to DMSO control (HBV [1]; HepAD38 cells): 44%

Nc1nc(N2C(=O)C3CC=CCC3C2=O)nn1-c1ccccc1 (stereo not shown) [Compound C-5]
Residual HBV DNA level (secreted) relative to DMSO control (HBV [1]; HepAD38 cells): 51%

CC(=O)N1c2ccc(S(=O)(=O)N3CCCC(C(=O)Nc4ccc(F)c(Cl)c4)C3)cc2CC1C (stereo not shown) [Compound C-31]
SI (CC50/EC50) (HBV [1]; HepAD38 cells): 96.0 ^a | EC50 (HBV [1]; 144 h, HepAD38 cells, 6 days): 260 ± 30 nM | CC50 at 6 days [2]: 25000 ± 3300 nM

Cc1cc2c(cc1S(=O)(=O)N1CCCC(C(=O)Nc3ccc(F)c(Cl)c3)C1)OCC(=O)N2 (stereo not shown) [Compound C-29]
SI (CC50/EC50) (HBV [1]; HepAD38 cells): 14.1 ^a | EC50 (HBV [1]; 144 h, HepAD38 cells, 6 days): 1290 ± 10 nM | CC50 at 6 days [2]: 18200 ± 2200 nM | Cytotoxicity in words (HepAD38 cells): medium cytotoxicity

Cc1nnc2ccc(N3CCCC(C(=O)Nc4ccc(F)c(Cl)c4)C3)nn12 (stereo not shown) [Compound C-4]
Residual HBV DNA level (secreted) relative to DMSO control (HBV [1]; HepAD38 cells): 21%

C=C1[C@H](CO)[C@@H](O)C[C@@H]1n1cnc2c(=O)[nH]c(N)nc21 [ETV, Entecavir, reference compound]
EC50 [3]: 6.1 nM | Effect on intracellular HBV capsid formation at single concentration (HBV capsid): much less or no inhibition effects | EC50 (HBV [1]; HePAD38, 144 h): 3 ± 1 nM | Effect on HBV encapsidated pgRNA (HBV encapsidated pgRNA): upregulated | Effect on secreted HBsAg (HBsAg; HepAD38 cells): no impact on HBsAg production | Effect on secreted HBsAg (HBsAg; HepG2-HBV1.3 cells): no impact on HBsAg production | EC50 (wild-type HBV): 3.2 nM

Cc1cc2c(cc1S(=O)(=O)N1CCCC(C(=O)Nc3ccc(F)c(Cl)c3)C1)OC(C)C(=O)N2 (stereo not shown) [Compound C-18]
SI (CC50/EC50) (HBV [4]): 147.1 | EC50 (HBV [4]; Hepatitis B virus, 144 h, 6 days): 140 nM | Effect on intracellular HBV capsid formation at single concentration (HBV capsid): strongly inhibited | Effect on intracellular HBV capsid formation, concentration series (HBV capsid; HepG2-HBV1.3 cells): downregulated | SI (CC50/EC50) (HBV [1]; HepAD38 cells): 131.2 | EC50 (HBV [1]; 144 h, HepAD38 cells, 6 days): 110 ± 30 nM | Effect on secreted HBeAg (HBeAg; HepAD38 cells): reduced the HBeAg level | Effect on secreted HBeAg (HBeAg; HepG2-HBV1.3 cells): downregulated | Effect on HBV replicative intermediates (HBV core DNA; HepAD38 cells, Southern blot): notably downregulated | Effect on intracellular HBV core DNA (HBV core DNA; HepAD38 cells): dramatic decrease | Effect on intracellular HBV core DNA (HBV core DNA; HepG2-HBV1.3 cells): downregulated | CC50 at 6 days [2]: 14800 ± 700 nM | Effect on intracellular total HBV RNAs (HBV encapsidated pgRNA; C-18, C-39 5 μM): slight decrease | Effect on HBV encapsidated pgRNA (HBV encapsidated pgRNA): markedly downregulated | CC50 at 6 days [5]: 20600 nM | Effect on secreted HBsAg (HBsAg; HepAD38 cells): no impact on HBsAg | HBc localisation / aggregation (HBc): induced punctate HBc aggregation within the nucleus | Effect on cccDNA formation, treatment together with viral inoculum (day 0) (HBV [6]): prevented the formation of cccDNA during the early postentry step | Effect on pre-established cccDNA, treatment 4 days after infection (day 4) (HBV [6]): minor effect | Effect on intracellular HBV 3.5 kb RNA (HBV 3.5 kb RNA; HepAD38 cells): dramatic decrease | Effect on intracellular HBV 3.5 kb RNA (HBV 3.5 kb RNA; HepG2-HBV1.3 cells): downregulated

O=C(Nc1ccc(F)c(Cl)c1)C1CCCN(S(=O)(=O)c2c[nH]c(C(=O)N3CCCC3)c2)C1 (stereo not shown) [Compound C-40]
SI (CC50/EC50) (HBV [1]; HepAD38 cells): 32.3 ^a | EC50 (HBV [1]; 144 h, HepAD38 cells, 6 days): 390 ± 10 nM | CC50 at 6 days [2]: 12600 ± 700 nM | Cytotoxicity in words (HepAD38 cells): medium cytotoxicity

COc1cccc(-c2noc([C@@H]3CCCN3C(=O)Nc3ccc(F)c(Cl)c3)n2)c1 [Compound C-9]
Effect on intracellular HBV capsid formation at single concentration (HBV capsid): did not affect the capsid formation | SI (CC50/EC50) (HBV [1]; HepAD38 cells): 23.4 | EC50 (HBV [1]; 144 h, HepAD38 cells, 6 days): 1140 ± 230 nM | CC50 at 6 days [2]: 26600 ± 2000 nM
